This note sets out measurements from patent US10441591B2, “Applications for etonogestrel in preparing anti-prostate cancer products” (SHANGHAI JIAO TONG UNIVERSITY, priority 2015, dated 2019).

Holding throughout (type): cell-based
Experiment [1] relates to DU-145 prostate cancer cells. Put plainly: CellTiter-Glo luminescent cell viability assay, DU-145. As to the method:
In example 1, CELLTITER-GLO was used to test etonogestrel against prostate cancer. DU-145 cells were handled as described above, and a DU-145 96-well cell culture plate was obtained. The complete medium for DU-145 cells was RPMI-1640 (a live product), Cat# A1049101, with a cells/well density of 4000. 2. The drug analyte etonogestrel was prepared and administered (200× final concentration): a) DMSO was used to dilute the analyte etonogestrel to 20 mM for use. 79 μL of the 20 mM analyte prepared in step a) was added to the first well in the first row of the dilution plate, and then 54 μL of DMSO solution was added to the second through ninth wells of the first row. 25 μL of solution was aspirated from the first to the second well, and after mixing well 25 μL of solution was aspirated from the second to the third well, and this was repeated until the 9th well in order to ensure that 3.16 dilution of the medication would be carried out one-by-one. b) 95 μl of cell-specific complete medium was added to the working plate, each medication to 9 wells. […] The final concentrations (μM) of the analyte drug in wells 2-10 in FIG. 1 are, in order: 100, 31.64557, 10.01442, 3.16912, 1.002886, 0.317369, 0.100433, 0.031783, 0.010058; a) Before testing, the DU-145 96-well drug screening plate described in 3 above was stabilized to room temperature for 20-30 minutes. c) 100 μl of CellTiter-Glo reagent (prepared as described in 1 above) was added to all drug screening plates and mixed evenly. d) It was thoroughly oscillated in a 96-well microplate oscillator for 2 minutes to allow the cells to undergo full lysis. e) It was stored away from light at room temperature for 15 minutes before carrying out luminescent signal detection to ensure signal stability. f) An EnSpire multi-function plate reader was used at […] to read the luminescent signals. g) Data was processed and analyzed.
For orientation: In ATP-based viability assays light output follows the ATP content of the culture.

Experiment [2] concerns NCI-H2122 human lung cancer cells. Put plainly: CellTiter-Glo luminescent cell viability assay, NCI-H2122. The note with it: 72 hours.
The test system of experiment [3] is NCI-H1703 human lung squamous carcinoma cells. Put plainly: CellTiter-Glo luminescent cell viability assay, NCI-H1703. The settings on record: 72 hours.

One may read the IC50 as the concentration needed to halve the response being measured. Read a high IC50 as lower potency. In general, EC50 refers to the concentration that produces a half-maximal response. A higher EC50 goes with a less potent agent. On to `C#C[C@]1(O)CC[C@H]2[C@@H]3CCC4=CC(=O)CC[C@@H]4[C@H]3C(=C)C[C@@]21CC` [etonogestrel], for which the “inhibitory effect on the proliferation of prostate cancer cells” value in experiment [1] (DU-145 compared with NCI-H1703 and NCI-H2122) is reported as “specific inhibitory effect on the proliferation of prostate cancer cells”. The concentration for half-maximal inhibition (IC50) is 16 µM in experiment [1] (Homo sapiens, DU-145 cells, 72 hours, CellTiter-Glo); at least 100 µM in experiment [2]; at least 100 µM in experiment [3]. Moreover, it took 11.7 µM to reach a half-maximal effect in experiment [1] (Homo sapiens, DU-145 cells, FIG. 2 dose-response curve, 72 hours) (EC50).
